# From the supplement of paper PMC10307832
# Legend:
# Experiment in all cases: relative viability (nuclei count vs DMSO), 5 days (fraction); higher = more cells survive
# NCI-H1651 = tested on: NCI-H1651
# How it was run: (§1)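 Lung cancer cell lines, seeded in 1536-well plates, were treated the following day by pin tool with a single drug or with five library-drug doses (not always all listed) in √10 steps on top of a fixed anchor-drug dose. Cells were fixed and nuclei stained in one step after 5 days, and nuclei were counted. Relative viability is the nuclei count for treated wells divided by that for vehicle wells, reported as medians of duplicate plates.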
# HCC-366 = tested on: HCC-366
# How it was run: as §1
# NCI-H460 = tested on: NCI-H460
# How it was run: as §1
# LC-2-ad = tested on: LC-2-ad
# How it was run: as §1
# UMC-11 = tested on: UMC-11
# How it was run: as §1
# RERF-LC-KJ = tested on: RERF-LC-KJ
# How it was run: as §1
# LU99A = tested on: LU99A
# How it was run: as §1
# ABC-1 = tested on: ABC-1
# How it was run: as §1
# NCI-H2087 = tested on: NCI-H2087
# How it was run: as §1
# NCI-H1734 = tested on: NCI-H1734
# How it was run: as §1
# CAL-12T = tested on: CAL-12T
# How it was run: as §1
# NCI-H1755 = tested on: NCI-H1755
# How it was run: as §1
# LOU-NH91 = tested on: LOU-NH91
# How it was run: as §1
# EPLC-272H = tested on: EPLC-272H
# How it was run: as §1
# HCC-78 = tested on: HCC-78
# How it was run: as §1
# ChaGo-K-1 = tested on: ChaGo-K-1
# How it was run: as §1
# PC-3 [JPC-3] = tested on: PC-3 [JPC-3]
# How it was run: as §1
# NCI-H2228 = tested on: NCI-H2228
# How it was run: as §1
# NCI-H2405 = tested on: NCI-H2405
# How it was run: as §1
# NCI-H3122 = tested on: NCI-H3122
# How it was run: as §1
compound,measurement,setting,value
CC(C)Oc1cc(Nc2nc(N[C@@H](C)c3ccc(F)cn3)ncc2Cl)n[nH]1 [AZ23] + CC(C)C[C@H](NC(=O)[C@H](Cc1ccccc1)NC(=O)c1cnccn1)B(O)O [Bortezomib] (partner 0.002 µM),relative viability,NCI-H1651; first compound 0.01 µM,0.957
same,relative viability,NCI-H1651; first compound 0.03162 µM,1.02
same,relative viability,NCI-H1651; first compound 0.3162 µM,1.01
same,relative viability,HCC-366; first compound 0.01 µM,1.26
same,relative viability,HCC-366; first compound 0.03162 µM,1.34
same,relative viability,HCC-366; first compound 0.3162 µM,1.1
same,relative viability,NCI-H460; first compound 0.01 µM,0.915
same,relative viability,NCI-H460; first compound 0.03162 µM,1.47
same,relative viability,NCI-H460; first compound 0.3162 µM,1.38
same,relative viability,LC-2-ad; first compound 0.01 µM,1.16
same,relative viability,LC-2-ad; first compound 0.03162 µM,1.2
same,relative viability,LC-2-ad; first compound 0.3162 µM,1.01
same,relative viability,UMC-11; first compound 0.01 µM,0.766
same,relative viability,UMC-11; first compound 0.03162 µM,0.86
same,relative viability,UMC-11; first compound 0.3162 µM,0.808
same,relative viability,RERF-LC-KJ; first compound 0.01 µM,1.23
same,relative viability,RERF-LC-KJ; first compound 0.03162 µM,1.31
same,relative viability,RERF-LC-KJ; first compound 0.3162 µM,1.17
same,relative viability,LU99A; first compound 0.01 µM,1.13
same,relative viability,LU99A; first compound 0.03162 µM,1.2
same,relative viability,LU99A; first compound 0.3162 µM,1.13
same,relative viability,ABC-1; first compound 0.01 µM,0.29
same,relative viability,ABC-1; first compound 0.03162 µM,0.269
same,relative viability,ABC-1; first compound 0.3162 µM,0.255
same,relative viability,NCI-H2087; first compound 0.01 µM,1.3
same,relative viability,NCI-H2087; first compound 0.03162 µM,0.962
same,relative viability,NCI-H2087; first compound 0.3162 µM,0.778
same,relative viability,NCI-H1734; first compound 0.01 µM,1.02
same,relative viability,NCI-H1734; first compound 0.03162 µM,1.37
same,relative viability,NCI-H1734; first compound 0.3162 µM,1.01
same,relative viability,CAL-12T; first compound 0.03162 µM,1.01
same,relative viability,CAL-12T; first compound 0.3162 µM,0.876
same,relative viability,NCI-H1755; first compound 0.01 µM,1.16
same,relative viability,NCI-H1755; first compound 0.03162 µM,1.07
same,relative viability,NCI-H1755; first compound 0.3162 µM,1.03
same,relative viability,LOU-NH91; first compound 0.01 µM,0.535
same,relative viability,LOU-NH91; first compound 0.03162 µM,0.546
same,relative viability,LOU-NH91; first compound 0.3162 µM,0.519
same,relative viability,EPLC-272H; first compound 0.01 µM,0.942
same,relative viability,EPLC-272H; first compound 0.03162 µM,1.02
same,relative viability,HCC-78; first compound 0.01 µM,0.395
same,relative viability,HCC-78; first compound 0.03162 µM,0.507
same,relative viability,HCC-78; first compound 0.3162 µM,0.335
same,relative viability,ChaGo-K-1; first compound 0.01 µM,0.96
same,relative viability,ChaGo-K-1; first compound 0.03162 µM,1.22
same,relative viability,ChaGo-K-1; first compound 0.3162 µM,1.16
same,relative viability,PC-3 [JPC-3]; first compound 0.01 µM,0.893
same,relative viability,PC-3 [JPC-3]; first compound 0.03162 µM,1.01
same,relative viability,PC-3 [JPC-3]; first compound 0.3162 µM,0.887
same,relative viability,NCI-H2228; first compound 0.01 µM,1.49
same,relative viability,NCI-H2228; first compound 0.03162 µM,1.19
same,relative viability,NCI-H2228; first compound 0.3162 µM,0.84
same,relative viability,NCI-H2405; first compound 0.01 µM,0.963
same,relative viability,NCI-H2405; first compound 0.03162 µM,1.02
same,relative viability,NCI-H2405; first compound 0.3162 µM,0.948
same,relative viability,NCI-H3122; first compound 0.01 µM,1.04
same,relative viability,NCI-H3122; first compound 0.03162 µM,1.02
same,relative viability,NCI-H3122; first compound 0.3162 µM,1.12
COc1cc(N2CCC(C(N)=O)CC2)ccc1Nc1nc(N)c(Cl)c(Nc2ccccc2S(=O)(=O)C(C)C)n1 [HG-5-88-01] + CC(C)C[C@H](NC(=O)[C@H](Cc1ccccc1)NC(=O)c1cnccn1)B(O)O [Bortezomib] (partner 0.002 µM),relative viability,NCI-H1651; first compound 0.04 µM,0.844
same,relative viability,NCI-H1651; first compound 0.1265 µM,0.935
same,relative viability,NCI-H1651; first compound 0.4 µM,0.941
same,relative viability,NCI-H1651; first compound 1.265 µM,0.976
same,relative viability,NCI-H1651; first compound 4 µM,1.03
same,relative viability,HCC-366; first compound 0.04 µM,1.11
same,relative viability,HCC-366; first compound 0.1265 µM,1.09
same,relative viability,HCC-366; first compound 0.4 µM,0.972
same,relative viability,HCC-366; first compound 1.265 µM,1.04
same,relative viability,HCC-366; first compound 4 µM,1.24
same,relative viability,NCI-H460; first compound 0.04 µM,0.955
same,relative viability,NCI-H460; first compound 0.1265 µM,1.17
same,relative viability,NCI-H460; first compound 0.4 µM,1.09
same,relative viability,NCI-H460; first compound 1.265 µM,1.04
same,relative viability,NCI-H460; first compound 4 µM,1.28
same,relative viability,LC-2-ad; first compound 0.04 µM,1.06
same,relative viability,LC-2-ad; first compound 0.1265 µM,1.04
same,relative viability,LC-2-ad; first compound 0.4 µM,0.945
same,relative viability,LC-2-ad; first compound 1.265 µM,0.973
same,relative viability,LC-2-ad; first compound 4 µM,0.819
same,relative viability,UMC-11; first compound 0.04 µM,0.769
same,relative viability,UMC-11; first compound 0.1265 µM,0.82
same,relative viability,UMC-11; first compound 0.4 µM,0.642
same,relative viability,UMC-11; first compound 1.265 µM,0.837
same,relative viability,UMC-11; first compound 4 µM,0.494
same,relative viability,RERF-LC-KJ; first compound 0.04 µM,1.23
same,relative viability,RERF-LC-KJ; first compound 0.1265 µM,1.19
same,relative viability,RERF-LC-KJ; first compound 0.4 µM,1.08
same,relative viability,RERF-LC-KJ; first compound 1.265 µM,0.992
same,relative viability,RERF-LC-KJ; first compound 4 µM,0.639
same,relative viability,LU99A; first compound 0.04 µM,1.09
same,relative viability,LU99A; first compound 0.1265 µM,1.15
same,relative viability,LU99A; first compound 0.4 µM,1.03
same,relative viability,LU99A; first compound 1.265 µM,1.21
same,relative viability,LU99A; first compound 4 µM,1.07
same,relative viability,ABC-1; first compound 0.04 µM,0.335
same,relative viability,ABC-1; first compound 0.1265 µM,0.332
same,relative viability,ABC-1; first compound 0.4 µM,0.237
same,relative viability,ABC-1; first compound 1.265 µM,0.321
same,relative viability,ABC-1; first compound 4 µM,0.283
same,relative viability,NCI-H2087; first compound 0.04 µM,0.818
same,relative viability,NCI-H2087; first compound 0.1265 µM,0.692
same,relative viability,NCI-H2087; first compound 0.4 µM,0.713
same,relative viability,NCI-H2087; first compound 1.265 µM,1.01
same,relative viability,NCI-H2087; first compound 4 µM,0.934
same,relative viability,NCI-H1734; first compound 0.04 µM,0.899
same,relative viability,NCI-H1734; first compound 0.1265 µM,0.975
same,relative viability,NCI-H1734; first compound 0.4 µM,0.958
same,relative viability,NCI-H1734; first compound 1.265 µM,0.868
same,relative viability,NCI-H1734; first compound 4 µM,0.83
same,relative viability,CAL-12T; first compound 0.04 µM,1.16
same,relative viability,CAL-12T; first compound 0.1265 µM,0.897
same,relative viability,CAL-12T; first compound 0.4 µM,0.837
same,relative viability,CAL-12T; first compound 1.265 µM,0.955
same,relative viability,CAL-12T; first compound 4 µM,0.579
same,relative viability,NCI-H1755; first compound 0.1265 µM,0.911
same,relative viability,NCI-H1755; first compound 0.4 µM,0.885
same,relative viability,NCI-H1755; first compound 1.265 µM,0.92
same,relative viability,NCI-H1755; first compound 4 µM,0.975
same,relative viability,LOU-NH91; first compound 0.04 µM,0.54
same,relative viability,LOU-NH91; first compound 0.1265 µM,0.53
same,relative viability,LOU-NH91; first compound 0.4 µM,0.472
same,relative viability,LOU-NH91; first compound 1.265 µM,0.48
same,relative viability,LOU-NH91; first compound 4 µM,0.48
same,relative viability,EPLC-272H; first compound 0.04 µM,0.854
same,relative viability,EPLC-272H; first compound 0.1265 µM,0.941
same,relative viability,EPLC-272H; first compound 0.4 µM,1
same,relative viability,EPLC-272H; first compound 1.265 µM,0.851
same,relative viability,EPLC-272H; first compound 4 µM,0.385
same,relative viability,HCC-78; first compound 0.04 µM,0.467
same,relative viability,HCC-78; first compound 0.1265 µM,0.369
same,relative viability,HCC-78; first compound 0.4 µM,0.393
same,relative viability,HCC-78; first compound 1.265 µM,0.218
same,relative viability,HCC-78; first compound 4 µM,0.211
same,relative viability,ChaGo-K-1; first compound 0.04 µM,1.11
same,relative viability,ChaGo-K-1; first compound 0.1265 µM,0.983
same,relative viability,ChaGo-K-1; first compound 0.4 µM,0.976
same,relative viability,ChaGo-K-1; first compound 1.265 µM,1.02
same,relative viability,ChaGo-K-1; first compound 4 µM,0.785
same,relative viability,PC-3 [JPC-3]; first compound 0.04 µM,0.982
same,relative viability,PC-3 [JPC-3]; first compound 0.1265 µM,0.928
same,relative viability,PC-3 [JPC-3]; first compound 0.4 µM,0.819
same,relative viability,PC-3 [JPC-3]; first compound 1.265 µM,0.849
same,relative viability,PC-3 [JPC-3]; first compound 4 µM,0.533
same,relative viability,NCI-H2228; first compound 0.04 µM,0.363
same,relative viability,NCI-H2228; first compound 0.1265 µM,0.478
same,relative viability,NCI-H2228; first compound 0.4 µM,0.292
same,relative viability,NCI-H2228; first compound 1.265 µM,0.255
same,relative viability,NCI-H2228; first compound 4 µM,0.345
same,relative viability,NCI-H2405; first compound 0.04 µM,1.01
same,relative viability,NCI-H2405; first compound 0.1265 µM,0.977
same,relative viability,NCI-H2405; first compound 0.4 µM,0.929
same,relative viability,NCI-H2405; first compound 1.265 µM,0.933
same,relative viability,NCI-H2405; first compound 4 µM,0.946
same,relative viability,NCI-H3122; first compound 0.04 µM,0.894
same,relative viability,NCI-H3122; first compound 0.1265 µM,0.647
same,relative viability,NCI-H3122; first compound 0.4 µM,0.335
same,relative viability,NCI-H3122; first compound 1.265 µM,0.296
same,relative viability,NCI-H3122; first compound 4 µM,0.216
